{"source": "patent US20250197376A1", "about": "“PYRAZINE AMIDE DERIVATIVES” (Novartis AG, priority 2022, published 2025)", "data": [{"system": "3D7 P. falciparum strain", "test": "P. falciparum 3D7 parasite proliferation assay (SYBR Green)", "format": "cell-based", "conditions": "Plasmodium falciparum, Erythrocyte; 3D7 P. falciparum infected human erythrocytes, 72 hours, SYBR Green fluorescence; read-out: Pf3D7 Activity", "description": "The following assay illustrates the invention without in any way limiting the scope of the invention. This parasite proliferation assay measures the increase in parasite DNA content using a DNA intercalating dye, SYBR Green®. 3D7 P. falciparum strain is grown in complete culturing media until parasitemia reaches 3% to 8% with O+ human erythrocytes. 20 μl of screening media is dispensed into 384 well assay plates. 50 nl of compounds of the invention (in DMSO), including antimalarial controls (mefloquine, pyrimethamine and artemisinin), are then transferred into the assay plates, as well as DMSO alone to serve as a negative control for inhibition. Then 30 μl of a suspension of a 3D7 P. falciparum infected erythrocytes in screening media is dispensed into the assay plates such that the final hematocrit is 2.5% with a final parasitemia of 0.3%. The plates are placed in a 37° C. incubator for 72 hours in a low oxygen environment containing 93% N2, 4% CO2, and 3% O2 gas mixture. 10 μl of lysis buffer (saponin, triton-X, EDTA) containing a 10× solution of SYBR Green […] in RPMI media is dispensed into the plates. The plates are lidded and kept at room temperature overnight for the lysis of the infected red blood cells. The fluorescence intensity is measured (excitation […], emission 530 nm) using the Envision™ system (Perkin Elmer). The percentage inhibition of 50%, EC50, is calculated for each compound.", "units": {"EC50": "nM"}, "values": [{"smiles": "Cc1cc2[nH]c(-c3cncc(C(=O)NCC(C)(C)N)n3)c(C)c2s1", "note": "[Example 73, N-(2-amino-2-methylpropyl)-6-(2,6-dimethyl-4H-thieno[3,2-b]pyrrol-5-yl)pyrazine-2-carboxamide]", "EC50": "10 to 100"}, {"smiles": "Cc1c(-c2cncc(C(=O)NCC(C)(C)N)n2)[nH]c2ccc(Br)cc12", "note": "[Example 74, N-(2-Amino-2-methylpropyl)-6-(5-bromo-3-methyl-1H-indol-2-yl)pyrazine-2-carboxamide]", "EC50": "< 10"}, {"smiles": "Cc1c(-c2cncc(C(=O)NCC(C)(C)N)n2)[nH]c2ccc(S(C)(=O)=O)cc12", "note": "[Example 75, N-(2-Amino-2-methylpropyl)-6-(3-methyl-5-(methylsulfonyl)-1H-indol-2-yl)pyrazine-2-carboxamide]", "EC50": "> 100"}, {"smiles": "Cc1c(-c2cncc(C(=O)NCC(C)(C)N)n2)[nH]c2c1CCC(C)(C)C2", "note": "[Example 76, N-(2-Amino-2-methylpropyl)-6-(3,6,6-trimethyl-4,5,6,7-tetrahydro-1H-indol-2-yl)pyrazine-2-carboxamide]", "EC50": "10 to 100"}, {"smiles": "Cc1c(-c2cncc(C(=O)N[C@H]3CCC[C@@H]3N)n2)[nH]c2cc(Cl)c(F)cc12", "note": "[Example 77, N-((1S,2S)-2-Aminocyclopentyl)-6-(6-chloro-5-fluoro-3-methyl-1H-indol-2-yl)pyrazine-2-carboxamide]", "EC50": "< 10"}, {"smiles": "Cc1c(-c2cncc(C(=O)NCC(N)C3CC3)n2)[nH]c2cc(Cl)c(F)cc12", "note": "(centres unmarked) [Example 79, N-(2-amino-2-cyclopropylethyl)-6-(6-chloro-5-fluoro-3-methyl-1H-indol-2-yl)pyrazine-2-carboxamide]", "EC50": "10 to 100"}, {"smiles": "Cc1c(-c2cncc(C(=O)NCC3(N)CCOCC3)n2)[nH]c2cc(Cl)c(F)cc12", "note": "[Example 80, N-((4-aminotetrahydro-2H-pyran-4-yl)methyl)-6-(6-chloro-5-fluoro-3-methyl-1H-indol-2-yl)pyrazine-2-carboxamide]", "EC50": "10 to 100"}, {"smiles": "Cc1c(-c2cncc(C(=O)NCC3(N)CC3)n2)[nH]c2cc(Cl)c(F)cc12", "note": "[Example 81, N-((1-aminocyclopropyl)methyl)-6-(6-chloro-5-fluoro-3-methyl-1H-indol-2-yl)pyrazine-2-carboxamide]", "EC50": "10 to 100"}, {"smiles": "Cc1c(-c2cncc(C(=O)NCC3(N)CC(F)(F)C3)n2)[nH]c2cc(Cl)c(F)cc12", "note": "[Example 82, N-((1-amino-3,3-difluorocyclobutyl)methyl)-6-(6-chloro-5-fluoro-3-methyl-1H-indol-2-yl)pyrazine-2-carboxamide]", "EC50": "10 to 100"}, {"smiles": "Cc1c(-c2cncc(C(=O)NCC(C)(C)N)n2)[nH]c2ccccc12", "note": "[Example 83, N-(2-amino-2-methylpropyl)-6-(3-methyl-1H-indol-2-yl)pyrazine-2-carboxamide]", "EC50": "10 to 100"}, {"smiles": "Cc1c(-c2cncc(C(=O)NCC3(N)CCC3)n2)[nH]c2ccccc12", "note": "[Example 84, N-((1-aminocyclobutyl)methyl)-6-(3-methyl-1H-indol-2-yl)pyrazine-2-carboxamide]", "EC50": "10 to 100"}, {"smiles": "Cc1c(-c2cncc(C(=O)NCCC(C)(C)N)n2)[nH]c2ccccc12", "note": "[Example 85, N-(3-amino-3-methylbutyl)-6-(3-methyl-1H-indol-2-yl)pyrazine-2-carboxamide]", "EC50": "10 to 100"}, {"smiles": "Cc1c(-c2cncc(C(=O)NCCN)n2)[nH]c2ccccc12", "note": "[Example 86, N-(2-aminoethyl)-6-(3-methyl-1H-indol-2-yl)pyrazine-2-carboxamide]", "EC50": "10 to 100"}, {"smiles": "Cc1c(-c2cncc(C(=O)NC34CC(N)(C3)C4)n2)[nH]c2ccccc12", "note": "[Example 87, N-(3-aminobicyclo[1.1.1]pentan-1-yl)-6-(3-methyl-1H-indol-2-yl)pyrazine-2-carboxamide]", "EC50": "10 to 100"}, {"smiles": "Cc1c(-c2cncc(C(=O)NC(C)(C)CN)n2)[nH]c2ccccc12", "note": "[Example 88, N-(1-amino-2-methylpropan-2-yl)-6-(3-methyl-1H-indol-2-yl)pyrazine-2-carboxamide]", "EC50": "10 to 100"}, {"smiles": "Cc1c(-c2cncc(C(=O)NCC3(N)CCOCC3)n2)[nH]c2ccccc12", "note": "[Example 89, N-((4-aminotetrahydro-2H-pyran-4-yl)methyl)-6-(3-methyl-1H-indol-2-yl)pyrazine-2-carboxamide]", "EC50": "10 to 100"}, {"smiles": "Cc1c(-c2cncc(C(=O)NCCCN)n2)[nH]c2ccccc12", "note": "[Example 90, N-(3-aminopropyl)-6-(3-methyl-1H-indol-2-yl)pyrazine-2-carboxamide]", "EC50": "> 100"}, {"smiles": "Cc1c(-c2cncc(C(=O)NC3CNC3)n2)[nH]c2ccccc12", "note": "[Example 91, N-(azetidin-3-yl)-6-(3-methyl-1H-indol-2-yl)pyrazine-2-carboxamide]", "EC50": "> 100"}, {"smiles": "Cc1c(-c2cncc(C(=O)NC3CCC(N)C3)n2)[nH]c2ccccc12", "note": "(centres unmarked) [Example 92, N-(3-aminocyclopentyl)-6-(3-methyl-1H-indol-2-yl)pyrazine-2-carboxamide]", "EC50": "> 100"}, {"smiles": "Cc1c(-c2cncc(C(=O)NC3CCNCC3)n2)[nH]c2ccccc12", "note": "[Example 93, 6-(3-methyl-1H-indol-2-yl)-N-(piperidin-4-yl)pyrazine-2-carboxamide]", "EC50": "> 100"}, {"smiles": "Cc1c(-c2cncc(C(=O)NCC(N)CO)n2)[nH]c2ccccc12", "note": "(centres unmarked) [Example 94, N-(2-amino-3-hydroxypropyl)-6-(3-methyl-1H-indol-2-yl)pyrazine-2-carboxamide]", "EC50": "> 100"}, {"smiles": "Cc1c(-c2cncc(C(=O)NCC3(N)COC3)n2)[nH]c2ccccc12", "note": "[Example 95, N-((3-aminooxetan-3-yl)methyl)-6-(3-methyl-1H-indol-2-yl)pyrazine-2-carboxamide]", "EC50": "> 100"}, {"smiles": "Cc1c(-c2cncc(C(=O)NCC(C)(C)N3CCOCC3)n2)[nH]c2ccccc12", "note": "[Example 96, 6-(3-Methyl-1H-indol-2-yl)-N-(2-methyl-2-morpholinopropyl)pyrazine-2-carboxamide]", "EC50": "> 100"}, {"smiles": "Cc1c(-c2cncc(C(=O)N[C@H]3CC[C@H](N)CC3)n2)[nH]c2ccccc12", "note": "[Example 97, N-((1r,4r)-4-aminocyclohexyl)-6-(3-methyl-1H-indol-2-yl)pyrazine-2-carboxamide]", "EC50": "> 100"}, {"smiles": "Cc1c(-c2cncc(C(=O)NCC(C)(C)O)n2)[nH]c2ccccc12", "note": "[Example 100, N-(2-hydroxy-2-methylpropyl)-6-(3-methyl-1H-indol-2-yl)pyrazine-2-carboxamide]", "EC50": "> 100"}, {"smiles": "Cc1c(-c2cncc(C(=O)NCC(N)C3CC3)n2)[nH]c2ccccc12", "note": "(centres unmarked) [Example 102]", "EC50": "10 to 100"}, {"smiles": "CC(C)(N)CNC(=O)c1cncc(-c2cc3cc(C#N)ccc3[nH]2)n1", "note": "[Example 104]", "EC50": "> 100"}, {"smiles": "CC(C)(N)CNC(=O)c1cncc(-c2[nH]c3ccc(OC(F)(F)F)cc3c2Cl)n1", "note": "[Example 106, N-(2-Amino-2-methylpropyl)-6-(3-chloro-5-(trifluoromethoxy)-1H-indol-2-yl)pyrazine-2-carboxamide]", "EC50": "< 10"}, {"smiles": "Cc1c(-c2cncc(C(=O)NCC(C)(C)N)n2)[nH]c2ccc(C(=O)NCC(C)(C)N)cc12", "note": "[Example 107, N-(2-amino-2-methylpropyl)-2-(6-((2-amino-2-methylpropyl)carbamoyl)pyrazin-2-yl)-3-methyl-1H-indole-5-carboxamide]", "EC50": "> 100"}, {"smiles": "CC(C)(N)CNC(=O)c1cncc(-c2cc3sc(C(N)=O)cc3[nH]2)n1", "note": "[Example 108, 5-(6-((2-amino-2-methylpropyl)carbamoyl)pyrazin-2-yl)-4H-thieno[3,2-b]pyrrole-2-carboxamide]", "EC50": "> 100"}, {"smiles": "CN(C)C(=O)c1cc2[nH]c(-c3cncc(C(=O)NCC(C)(C)N)n3)cc2s1", "note": "[Example 109, 5-(6-((2-amino-2-methylpropyl)carbamoyl)pyrazin-2-yl)-N,N-dimethyl-4H-thieno[3,2-b]pyrrole-2-carboxamide]", "EC50": "> 100"}, {"smiles": "CC(C)(N)CNC(=O)c1cncc(-c2cc3cc(F)c(O)cc3[nH]2)n1", "note": "[Example 110, N-(2-amino-2-methylpropyl)-6-(5-fluoro-6-hydroxy-1H-indol-2-yl)pyrazine-2-carboxamide]", "EC50": "> 100"}]}]}
